# Calls of active or inactive are those of the source. No cut-off for these calls is given here.
# How the values were obtained:
# [1] = test system: HeLa; assay: Cytotoxicity against human HeLa cells after 96 hrs by MTT assay; format: functional, cell-based
# [2] = test system: HeLa; assay: Inhibition of Aurora kinase in human HeLa cells assessed as complete inhibition of histone H3 phosphorylation at 1.25 uM after 7 hrs by Western blot analysis; format: cell-based
# [3] = Cytotoxicity against human MESSA cells after 96 hrs by MTT assay; format: functional, cell-based; details: MES-SA
# [4] = test system: NCI-H460; assay: Antitumor activity against human NCI-H460 cells xenografted in athymic mouse assessed as delay in tumor growth at 100 mg/kg, po administered QD on day 1 after implantation for 5 days; format: functional
# [5] = test system: A549; assay: Cell cycle arrest in asynchronous human A549 cells assessed as accumulation of cyclin B1-negative tetraploid cells at G1 phase at 0.5 to 2 uM after 24 hrs by FACS analysis; format: functional, cell-based
# [6] = test system: COLO 205; assay: Cytotoxicity against human COLO205 cells after 96 hrs by MTT assay; format: functional, cell-based; details: COLO 205, 96 h
# [7] = test system: U2OS; assay: Inhibition of Aurora kinase in asynchronous human U2OS cells assessed as reduction of histone H3 serine-10 phosphorylation at 150 nM after 7 hrs immunofluorescence microscopy; format: cell-based
# [8] = test system: HeLa; assay: Inhibition of Aurora kinase in human HeLa cells assessed as reduction of histone H3 serine-10 phosphorylation at 1 uM after 7 hrs immunofluorescence microscopy; format: cell-based
# [9] = test system: SW-620; assay: Induction of apoptosis in human SW620 cells assessed as early apoptotic cells at 1 uM after 48 hrs by TUNEL assay; format: functional
# [10] = test system: MCF7; assay: Induction of p53 protein expression in human MCF7 cells at 0.07 to 10 uM after 7 hrs by fluorescent microscopy; format: functional, cell-based
# [11] = test system: MV4-11; assay: Cytotoxicity against human MV4-11 cells after 96 hrs by MTT assay; format: functional, cell-based; details: MV4-11, 96 h
# [12] = test system: NCI-H460; assay: Cytotoxicity against human NCI-H460 cells after 96 hrs by MTT assay; format: functional, cell-based; details: NCI-H460, 96 h
# [13] = test system: MIA PaCa-2; assay: Cytotoxicity against human MIAPaCa2 cells after 96 hrs by MTT assay; format: functional, cell-based; details: MIA PaCa-2, 96 h
# [14] = Apparent volume of distribution with respect to the bioavailability in Wistar rat at 10 mg/kg, po after 24 hrs by LC/MS/MS analysis; format: ADME, organism-based; details: in vivo, read-out: Vc/F
# [15] = Aqueous solubility by turbidimetric analysis; format: physicochemical
# [16] = test system: Mus musculus; assay: Toxicity in athymic mouse xenografted with human NCI-H460 cells assessed as body weight loss at 100 mg/kg, po administered QD on day 1 after implantation for 5 days measured on day 8; format: organism-based; set-up: dose 100 mg/kg, route oral; details: in vivo, 120 h
# [17] = Inhibition of CAMK2
# [18] = AUC (0 to 24 hrs) in Wistar rat at 10 mg/kg, po after 24 hrs by LC/MS/MS analysis; format: ADME, organism-based; set-up: time < 24 hr, dose 10 mg/kg, route oral; details: plasma
# [19] = biological target: Aurora kinase A (Homo sapiens) (UniProt O14965); assay: Inhibition of Aurora A phosphorylation in human A549 cells at 0.15 to 5 uM after 1 hr by Western blot analysis in presence of nocodazole and proteasome inhibitor MG132; format: cell-based
# [20] = Antitumor activity against mouse P388D1 cells xenografted in BALB/c mouse assessed as increase in life span at 45 mg/kg, po administered BID on days 1-3 and 7-9 after tumor implantation relative to control
# [21] = test system: NCI-H460; assay: Antitumor activity against human NCI-H460 cells xenografted in athymic mouse assessed as reduction in tumor volume at 75 mg/kg, po administered QD on day 1 after implantation for 5 days; format: functional, organism-based; set-up: dose 75 mg/kg
# [22] = Dissociation constant, pKa by pH-metric titration method; format: physicochemical
# [23] = biological target: Cytochrome P450 3A4 (Homo sapiens, UniProt P08684); assay: Inhibition of human recombinant CYP3A4 at 5 uM; format: ADME; details: recombinant enzyme
# [24] = biological target: Cytochrome P450 1A (Homo sapiens, UniProt P04798+P05177); assay: Inhibition of human recombinant CYP1A at 5 uM; format: ADME; details: recombinant enzyme
# [25] = Clearance in Wistar rat at 10 mg/kg, po after 24 hrs by LC/MS/MS analysis; format: ADME, organism-based; set-up: dose 10 mg/kg, route oral; details: in vivo
# [26] = test system: NCI-H460; assay: Antitumor activity against human NCI-H460 cells xenografted in athymic mouse assessed as reduction in mean tumor volume at 100 mg/kg, po administered QD on day 1 after implantation for 5 days measured on day 9 relative to control; format: functional; set-up: scale not given: the % may be the effect or the level left
# [27] = Apparent permeability across human Caco-2 cell membrane; format: ADME, cell-based
# [28] = test system: HCT-116; assay: Cytotoxicity against human HCT116 cells after 96 hrs by MTT assay; format: functional, cell-based; details: HCT-116, 96 h
# [29] = Elimination half life in Wistar rat at 10 mg/kg, po by LC/MS/MS analysis; format: ADME, organism-based; set-up: dose 10 mg/kg, route oral; details: in vivo, read-out: beta t1/2 (converted)
# [30] = Oral bioavailability in mouse up to 100 mg/kg; format: ADME, organism-based; details: in vivo
# [31] = biological target: Aurora kinase B (Homo sapiens, UniProt Q96GD4); details: A549, 0.15 to 5 uM
# Description: Inhibition of Aurora B phosphorylation in human A549 cells at 0.15 to 5 uM after 1 hr by Western blot analysis in presence of nocodazole and proteasome inhibitor MG132
# [32] = Inhibition of PKC
# [33] = test system: MCF7; assay: Cytotoxicity against human MCF7 cells after 96 hrs by MTT assay; format: functional, cell-based; details: MCF7, 96 h
# [34] = Cmax in Wistar rat at 10 mg/kg, po after 24 hrs by LC/MS/MS analysis; format: ADME, organism-based; set-up: dose 10 mg/kg, route oral; details: in vivo
# [35] = test system: NCI-H460; assay: Antitumor activity against human NCI-H460 cells xenografted in athymic mouse assessed as reduction in mean tumor volume at 100 mg/kg, po administered QD on day 1 after implantation for 5 days measured on day 6 relative to control; format: functional; set-up: scale not given: the % may be the effect or the level left
# [36] = test system: A549; assay: Effect on mitotic index in asynchronous human A549 cells assessed as appearance of misaligned chromosomes with shortened spindle fibres at 0.5 uM after 8 hrs […]; format: functional, cell-based
# [37] = test system: Liver microsomes; assay: Intrinsic clearance in rat liver microsomes by LC/MS/MS analysis; format: ADME, Microsome
# [38] = biological target: Cytochrome P450 2C9 (Homo sapiens, UniProt P11712); assay: Inhibition of human recombinant CYP2C9 at 5 uM; format: ADME; details: recombinant enzyme
# [39] = test system: A549; assay: Cell cycle arrest in asynchronous human A549 cells assessed as accumulation of cyclin B1-negative tetraploid cells at G1 phase at 0.5 to 2 uM after 7 hrs by FACS analysis; format: functional, cell-based
# [40] = test system: U2OS; assay: Inhibition of Aurora kinase in nocodazole-synchronized human U2OS cells assessed as reduction of histone H3 serine-10 phosphorylation at 0.07 to 10 uM after 2 hrs immunofluorescence microscopy; format: cell-based
# [41] = test system: K562; assay: Cytotoxicity against human K562 cells after 96 hrs by MTT assay; format: functional, cell-based; details: K562, 96 h
# [42] = test system: CCRF-CEM; assay: Cytotoxicity against human CCRF-CEM cells after 96 hrs by MTT assay; format: functional, cell-based
# [43] = biological target: Mitogen-activated protein kinase 14 (Homo sapiens, UniProt Q16539); assay: Inhibition of SAPK2A
# [44] = test system: SW-620; assay: Induction of apoptosis in human SW620 cells assessed as late apoptotic cells at 1 uM after 48 hrs by TUNEL assay; format: functional
# [45] = Octanol-aqueous buffer partition coefficient, log D at pH 7.4 by shake-flask method; format: physicochemical
# Aurora kinase B, sequence (Q96GD4 whole entry): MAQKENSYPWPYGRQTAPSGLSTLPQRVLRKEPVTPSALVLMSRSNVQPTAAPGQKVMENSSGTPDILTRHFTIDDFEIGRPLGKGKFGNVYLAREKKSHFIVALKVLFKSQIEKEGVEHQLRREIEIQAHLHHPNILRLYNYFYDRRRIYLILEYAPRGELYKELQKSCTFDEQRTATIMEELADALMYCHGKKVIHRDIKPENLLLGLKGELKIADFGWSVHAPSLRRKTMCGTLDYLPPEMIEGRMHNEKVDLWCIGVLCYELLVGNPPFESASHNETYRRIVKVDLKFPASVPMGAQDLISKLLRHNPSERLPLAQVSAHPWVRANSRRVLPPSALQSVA
# Aurora kinase A (Homo sapiens), sequence (O14965 whole entry): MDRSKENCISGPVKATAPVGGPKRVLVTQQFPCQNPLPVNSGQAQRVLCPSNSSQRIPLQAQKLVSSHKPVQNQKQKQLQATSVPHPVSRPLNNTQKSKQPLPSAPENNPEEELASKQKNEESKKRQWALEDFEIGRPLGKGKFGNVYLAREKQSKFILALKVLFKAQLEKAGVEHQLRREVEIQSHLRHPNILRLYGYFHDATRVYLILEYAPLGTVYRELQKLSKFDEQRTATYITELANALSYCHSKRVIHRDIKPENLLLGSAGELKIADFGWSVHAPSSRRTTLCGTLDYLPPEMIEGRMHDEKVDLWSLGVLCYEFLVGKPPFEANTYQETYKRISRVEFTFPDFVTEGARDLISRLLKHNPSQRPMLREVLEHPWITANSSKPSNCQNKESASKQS
# Cytochrome P450 3A4, sequence (P08684 whole entry): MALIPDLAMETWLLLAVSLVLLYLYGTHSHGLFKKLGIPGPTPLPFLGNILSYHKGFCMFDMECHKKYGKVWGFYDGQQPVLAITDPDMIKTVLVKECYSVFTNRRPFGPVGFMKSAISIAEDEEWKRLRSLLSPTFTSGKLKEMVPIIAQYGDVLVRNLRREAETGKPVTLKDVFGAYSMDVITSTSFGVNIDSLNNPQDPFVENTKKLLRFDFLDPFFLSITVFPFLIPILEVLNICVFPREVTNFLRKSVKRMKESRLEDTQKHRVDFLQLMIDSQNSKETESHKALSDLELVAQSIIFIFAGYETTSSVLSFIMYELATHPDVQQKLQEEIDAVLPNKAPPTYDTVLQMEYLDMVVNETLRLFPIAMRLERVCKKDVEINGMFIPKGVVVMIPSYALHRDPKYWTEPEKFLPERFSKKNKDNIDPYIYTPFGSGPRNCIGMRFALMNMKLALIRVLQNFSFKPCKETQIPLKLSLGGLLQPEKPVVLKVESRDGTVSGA
# Cytochrome P450 2C9, sequence (P11712 whole entry): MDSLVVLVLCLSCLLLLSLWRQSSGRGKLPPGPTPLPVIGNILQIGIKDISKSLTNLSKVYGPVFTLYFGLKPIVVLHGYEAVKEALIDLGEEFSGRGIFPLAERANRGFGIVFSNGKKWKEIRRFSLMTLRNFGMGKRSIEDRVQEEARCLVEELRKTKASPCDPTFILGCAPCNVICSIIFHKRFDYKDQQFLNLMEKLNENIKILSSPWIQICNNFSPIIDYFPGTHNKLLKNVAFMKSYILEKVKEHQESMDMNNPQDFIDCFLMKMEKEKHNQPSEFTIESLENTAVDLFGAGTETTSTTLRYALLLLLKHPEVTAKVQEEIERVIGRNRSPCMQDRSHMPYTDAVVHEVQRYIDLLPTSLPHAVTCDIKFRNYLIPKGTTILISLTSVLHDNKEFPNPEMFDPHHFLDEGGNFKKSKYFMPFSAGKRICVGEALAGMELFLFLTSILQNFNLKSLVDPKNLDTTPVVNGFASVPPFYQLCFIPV
# Mitogen-activated protein kinase 14, sequence (Q16539 whole entry): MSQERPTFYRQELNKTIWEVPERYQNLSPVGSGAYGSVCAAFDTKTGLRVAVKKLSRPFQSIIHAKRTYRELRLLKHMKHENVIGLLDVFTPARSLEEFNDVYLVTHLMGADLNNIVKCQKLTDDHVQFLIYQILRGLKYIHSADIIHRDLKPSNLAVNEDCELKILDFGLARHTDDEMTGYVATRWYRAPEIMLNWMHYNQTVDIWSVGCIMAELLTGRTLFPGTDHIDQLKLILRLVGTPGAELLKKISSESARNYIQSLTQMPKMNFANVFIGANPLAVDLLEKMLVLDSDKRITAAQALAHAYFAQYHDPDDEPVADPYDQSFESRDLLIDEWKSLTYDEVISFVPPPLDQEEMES
structure (smiles),measurement,setting,value
Cc1nc(N)sc1-c1ccnc(Nc2ccc(N3CCOCC3)cc2)n1 [CYC-116],IC50,[1],0.59 µM
same,inhibition,[2],Active
same,IC50,[3],0.09 µM
same,Activity,[4],5.8 days
same,Activity,[5],Active
same,IC50,[6],0.241 µM
same,Activity,[7],inactive
same,inhibition,[8],Active
same,Activity,[9],64.8%
same,Activity,[10],inactive
same,IC50,[11],0.034 µM
same,IC50,[12],0.681 µM
same,IC50,[13],0.278 µM
same,Vd/F,[14],8.5 L/kg
same,solubility kinetic,[15],10.5 µM
same,Activity,[16],Toxic
same,Ki,[17],> 10 µM
same,AUC(0-t) at 24 h,[18],13.6 µM·h
same,inhibition,[19],Active
same,Activity,[20],172%
same,Activity,[21],Active
same,pKa,[22],4.4
same,inhibition (INH),[23],Active
same,inhibition (INH),[24],Active
same,CL/F,[25],33.3 mL/min/kg
same,Activity,[26],19%
same,Papp,[27],47 ×10⁻⁶ cm/s
same,IC50,[28],0.34 µM
same,half-life,[29],3 h
same,bioavailability,[30],≤ 61%
same,inhibition,[31],Active
same,Ki,[32],> 10 µM
same,IC50,[33],0.599 µM
same,Cmax,[34],3.9 µM
same,Activity,[35],40%
same,Activity,[36],Active
same,clearance,[37],42.3 µL/min/mg
same,inhibition (INH),[38],Active
same,Activity,[39],Active
same,inhibition,[40],Active
same,IC50,[41],1.38 µM
same,IC50,[42],0.471 µM
same,Ki,[43],> 10 µM
same,Activity,[44],34.7%
same,logD,[45],2.74
